Results taken from patent EP4772507A1, “AZAINDOLE COMPOUND AND MEDICAL DRUG” (Nippon Shinyaku Co., Ltd., priority 2023, dated 2025).

Assays:
SU-DHL-4 cell lines = experiment: Proliferation inhibition test, GCB-DLBCL cell line SU-DHL-4 (negative control line); type: cell-based; conditions: Homo sapiens; SU-DHL-4 (GCB-DLBCL, NF-κB pathway-independent, negative control); 96 hours; Cell Counting Kit-8; read-out: Proliferation inhibitory activity against SU-DHL-4 IC50
How it was run: (§1)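 Cells exposed 96 h at 37 °C to compound at final 10–10,000 nM: OCI-Ly3 (ABC-DLBCL, NF-κB-dependent, IMDM/10% FBS) and SU-DHL-4 (GCB-DLBCL, NF-κB-independent negative control, RPMI-1640/10% FBS). Viability by CCK-8 absorbance at 450 nm after 4 h; IC50 from 2-parameter logistic regression.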

[1] = tested on: HEK293/API2-MALT1/NF-κB reporter cells; experiment: Inhibition of reporter activity in HEK293/API2-MALT1/NF-κB reporter cells; type: cell-based; conditions: Homo sapiens, 24 hours with test substance, One-glo luminescence
How it was run: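 HEK293 cells with constitutive NF-κB activation by API2-MALT1 fusion, carrying an NF-κB reporter; 293T/CMV reporter cells served as negative control. Cells seeded 24 h, then exposed to compound at final 10,000, 1,000, 100 and 10 nM for 24 h at 37 °C; luminescence read with One-glo, IC50 by non-linear regression.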

OCI-Ly3 cell lines = experiment: Proliferation inhibition test, ABC-DLBCL cell line OCI-Ly3; type: cell-based; conditions: Homo sapiens; OCI-Ly3 (ABC-DLBCL, NF-κB pathway-dependent); 96 hours; Cell Counting Kit-8; read-out: Proliferation inhibitory activity against OCI-Ly3 IC50
How it was run: as §1

[2] = Central nervous system (CNS) penetration study in mice; type: in vivo; conditions: female, BALB/cCrSlc, mouse, ip, 30 mg/kg intraperitoneally, three hours later, cerebrum and plasma by LC-MS/MS, read-out: Brain-to-plasma concentration ratio (Kp value)
Method: To evaluate the central nervous system (CNS) penetration of a test substance, a central nervous system penetration study was conducted using mice.
Six-week-old female BALB/cCrSlc mice (Japan SLC) were used. The test substance suspended in 0.5% methylcellulose was intraperitoneally administered to mice at a dose of 30 mg/kg. Three hours later, blood was collected from the abdominal vena cava under isoflurane anesthesia, and plasma was obtained by centrifugation. After exsanguination from the abdominal vena cava, the cerebrum was collected.
The drug concentrations of the collected plasma and cerebrum were measured by LC-MS/MS. To determine the brain penetration of the drug, the brain-to-plasma concentration ratio (Kp value) was calculated.

[3] = target: T1, C-terminal catalytic domain of MALT1 (amino acid residues 329-824) (Homo sapiens, UniProt Q9UDY8); experiment: MALT1 protease inhibitory activity (enzyme activity inhibition assay, fluorogenic substrate); type: biochemical; conditions: substrate Ac-Leu-Arg-Ser-Arg-AMC 50 µM; 30°C for 2 hours; fluorescence
T1 construct: C-terminal catalytic domain of MALT1 (amino acid residues 329-824)
T1 sequence (Q9UDY8 329-824): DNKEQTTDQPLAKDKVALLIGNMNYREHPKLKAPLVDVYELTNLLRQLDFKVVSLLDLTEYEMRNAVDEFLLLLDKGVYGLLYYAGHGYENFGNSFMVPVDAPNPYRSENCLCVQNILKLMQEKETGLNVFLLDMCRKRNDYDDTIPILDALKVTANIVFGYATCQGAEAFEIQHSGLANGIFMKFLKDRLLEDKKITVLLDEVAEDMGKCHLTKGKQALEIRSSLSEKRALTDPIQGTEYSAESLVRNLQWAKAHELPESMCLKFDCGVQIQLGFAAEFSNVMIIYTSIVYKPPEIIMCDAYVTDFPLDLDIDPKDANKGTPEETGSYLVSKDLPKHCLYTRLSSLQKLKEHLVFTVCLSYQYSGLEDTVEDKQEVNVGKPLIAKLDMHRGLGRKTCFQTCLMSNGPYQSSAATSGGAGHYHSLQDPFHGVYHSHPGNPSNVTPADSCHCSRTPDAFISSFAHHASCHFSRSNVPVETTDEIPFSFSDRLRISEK
How it was run: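 Human MALT1 catalytic domain (residues 329-824) with Ac-Leu-Arg-Ser-Arg-AMC at 50 µM final, pH 7.5 Tris/HEPES buffer with 0.8 M Na citrate, DTT and CHAPS. Compounds at 0.1 to 10000 nM final, n = 2; reaction 2 h at 30°C. Fluorescence (ex 380/em 460 nm) fitted to a 2-parameter logistic model for IC50.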

| IC50 (SU-DHL-4 cell lines) [nM] | IC50 (OCI-Ly3 cell lines) [nM] | Kp at 3 h [2] | IC50 [3] [nM] | SMILES | IC50 [1] [nM] |
| --- | --- | --- | --- | --- | --- |
| 1400 | 140 | 0.27 | 51 | CCCn1cc(C(=O)c2cnn(-c3cncc4c(F)cccc34)c2C(F)(F)F)c2cc(Cl)c(-c3ncccn3)nc21 [Example 26, [5-chloro-1-propyl-6-(pyrimidin-2-yl)-1H-pyrrolo[2,3-b]pyridin-3-yl][1-(8-fluoroisoquinolin-4-yl)-5-(trifluoromethyl)-1H-pyrazol-4-yl]methanone] | 110 |
| 2300 | 150 | 0.83 | 13 | Cn1cc(C(=O)c2cnn(-c3cncc4c(F)cccc34)c2C(F)(F)F)c2cc(Cl)c(-n3nccn3)nc21 [Example 6, [5-chloro-1-methyl-6-(2H-1,2,3-triazol-2-yl)-1H-pyrrolo[2,3-b]pyridin-3-yl][1-(8-fluoroisoquinolin-4-yl)-5-(trifluoromethyl)-1H-pyrazol-4-yl]methanone] | 75 |
| 1900 | 210 | 0.66 | 11 | Cn1cc(C(=O)c2cnn(-c3cncc4c(F)cccc34)c2C(F)(F)F)c2cc(Cl)c(-c3ncccn3)nc21 [Example 12, [5-chloro-1-methyl-6-(pyrimidin-2-yl)-1H-pyrrolo[2,3-b]pyridin-3-yl][1-(8-fluoroisoquinolin-4-yl)-5-(trifluoromethyl)-1H-pyrazol-4-yl]methanone] | 85 |
